# Measurements from ChEMBL document CHEMBL5728694, “Inhibitors of hepatitis C virus replication” (2021).
# pEC50: −log10 of the molar value.
# Experiment: Measuring Compound Inhibitory Potency: Measurement of inhibition by compounds was performed using the HCV replicon system. Several different replicons encoding different HCV genotypes or mutations were used. In addition, potency measurements were made using different formats of the replicon assay, including different ways of measurements and different plating formats. See Jan M. Vrolijk et al., A replicons-based bioassay for the measurement of interferons in patients with chronic hepatitis C, 110 J. VIROLOGICAL METHODS 201 (2003); Steven S. Carroll et al., Inhibition of Hepatitis C Virus RNA Replication by 2′-Modified Nucleoside Analogs, 278(14) J. BIOLOGICAL CHEMISTRY 11979 (2003). However, the underlying principles are common to all of these determinations, and are outlined below.Stable neomycin phosphotransferase encoding replicon-harboring cell lines were used, so all cell lines were maintained under G418 selection prior to the assay. In some cases, the cell lines encoded a luciferase:Neor fusion and could be assayed either directly by determination of RNA copy number, or indirectly through measurement of the luciferase activity.To initiate an assay, replicon cells were plated in the presence of a dilution series of test compound in the absence of G418. Typically, the assays were performed in a 96-well plate format for manual operation, or a 384-well plate in an automated assay. […]
smiles,measurement,value
COC(=O)N[C@H](C(=O)N1CCC[C@H]1c1ncc(-c2ccc3oc(-c4ccc(-c5cnc([C@@H]6CCCN6C(=O)[C@@H](NC(=O)OC)C(C)C)[nH]5)c(F)c4)cc3c2)[nH]1)C(C)C,pEC50,11.40
